What was measured:
T-p53C-Y220C [1] = target: T1, T-p53C-Y220C (Homo sapiens, UniProt P04637, M133L/N239Y/N268D/V203A/Y220C); test: Thermal denaturation using fluorescence (Sypro Orange); type: binding; conditions: 10 μM protein
T1 construct: For all other experiments, the DNA coding for residues 94-312 of T-p53C was inserted into a modified pET24a(+) vector; 6xHis tag + B. stearothermophilus dihydrolipoyl acetyltransferase lipoyl domain (aa 1-85) + TEV site (N, cleaved yes); made in house; host or cells: Escherichia coli BL21 (DE3) or C41 (DE3)
Procedure: This was by an adaption of the classical procedure (e.g. ref A6). Thermal unfolding was monitored by the binding of the dye Sypro Orange (5×) using a Rotor-gene 6000 (Corbett Life Science) at 270 K/h in 25 mM NaPi, 150 mM NaCl and 5 mM DTT, pH 7.2 with a protein concentration of 10 μM.
(§1) Where listed, S.E. is the calculated standard error.
as §1

T-p53C-Y220C [2] = target: T1, T-p53C-Y220C; test: Thermal denaturation using capillary DSC; type: binding; conditions: increase in Tm on adding 250 μM of the test compound; 20 μM protein
Procedure: Differential Scanning calorimetry (DSC) was used to probe the stabilising effect of the ligands on […]. For a reversible two-state system, the melting temperature, Tm, is the transition temperature where the folded and unfolded states are equally populated.
DSC experiments were performed using a Microcal VP-Capillary DSC instrument (Microcal, Amherst, Mass.) with an active cell volume of ˜125 μl. Protein samples were buffer exchanged into 25 mM NaPi, pH 7.2, 150 mM NaCl, 5 mM DTT. This buffer + the respective concentration of ligand/DMSO was used for baseline scans, so that the only difference between sample and reference cell or sample cell in the measurement and both cells in the baseline scan is the presence of the protein. A final concentration of 20 μM T-p53C-Y220C was used. A pressure of 2.5 bars (nitrogen) was applied to the cell. Temperatures from 10 to 85° C. were scanned at a rate of 250° C./h, with a filtering period of 4 seconds and feedback gain/mode set at medium. Data were analysed with ORIGIN software (Microcal).
The following tables show the results of the thermal denaturation studies using capillary DSC, where ΔTm is the increase in Tm on adding 250 μM of the test compound. The Dunnett significance test (P) value given is the calculated probability that the change in Tm is insignificant.

T-p53C-Y220C [3] = target: T1, T-p53C-Y220C; test: 1H/15N-HSQC NMR chemical shift binding (KD NMR); conditions: KD (@ 20° C.) μM, further NMR studies, some revised values
Procedure: Uniformly ^15N-labelled core domains of T-p53C-Y220C was expressed and purified according to the above described protocol. The low molecular-weight compounds were dissolved in d^6-DMSO to make 10 mM stock solutions. To screen compound mixtures by chemical shift mapping, 10 μl of each of 4 different compounds were mixed together and 25 μl of this mixture was added to 25 μl of D2O and 500 μl of 70 μM T-p53C-Y220C (in 25 mM NaPi, 150 mM NaCl and 5 mM DTT, pH 7.2 ). […] NMR samples were freshly prepared and kept sealed under argon after degassing by repeated cycles of pumping the NMR tube under low pressure (while gently tapping the tube) and returning to atmospheric pressure using a stream of argon gas. This was done to maintain sample stability.
Using Bruker's TopSpin 2.0 software, the number of complex points in t1 was doubled by forward complex linear prediction and shifted squared sine bell window functions were applied to both dimensions prior to zero filling and Fourier transformation. A digital resolution of 2.0 Hz/point in the ^1H frequency dimension and 4.7 Hz/point in the ^15N frequency dimension was used. […] An in-house script was used to analyse chemical shift differences and map these onto PDB protein structures.
For certain compounds an array of different concentrations were used to derive KD values (KD NMR) by fitting a saturation binding equation (Δδ=c+a*[L]/(KD+[L])) to the concentration-dependent chemical shift changes of the relevant shifting peaks.

[4] = further studies on compounds described above

| SMILES | ΔTm (° C.) (T-p53C-Y220C [1]; [4]) | ΔTm (T-p53C-Y220C [2]) | Kd (T-p53C-Y220C [3]) | ΔTm (° C.) (T-p53C-Y220C [1]; further compounds) |
| --- | --- | --- | --- | --- |
| CCn1c2ccccc2c2cc(CN(C)C(=O)NC3CCS(=O)(=O)C3)ccc21 (stereo not shown) [PK148] | 0.225 °C | 0.23 °C | – | – |
| CCn1c2ccccc2c2cc(NC(=O)C(C)N3CCN(CC(N)=O)CC3)ccc21 (stereo not shown) [PK152] | 0.22 °C | 0.22 °C | – | – |
| CCn1c2ccccc2c2cc(NC(=O)CCc3c(C)[nH]c(=O)c(C#N)c3C)ccc21 [PK141] | 0.48 °C | 0.48 °C | – | – |
| CCn1c2ccccc2c2cc(CN3CCNCC3)ccc21 [PK198] | 0.25 °C | 0.25 °C | – | – |
| CCn1c2ccccc2c2cc(NC(=O)Cc3ccc(S(=O)(=O)N4CCOCC4)s3)ccc21 [PK115] | 0.49 °C | 0.49 °C | – | – |
| CCn1c2ccccc2c2cc(CN3CCN(C)C(CCO)C3)ccc21 (stereo not shown) [PK217] | 0.493 °C | 0.47 °C | – | – |
| CCn1c2ccccc2c2cc(CN(C)C3CCN(C)CC3)ccc21 [PK178] | 0.34 °C | 0.5 °C | – | – |
| COc1ccc(N2CCN(Cc3cc4c(cc3O)[nH]c3ccccc34)CC2)cc1 [PK144] | 0.51 °C | 0.51 °C | – | – |
| CCn1c2ccccc2c2cc(NC(=O)CN3C(=O)NC(C)(c4ccc(C)cc4)C3=O)ccc21 (stereo not shown) [PK110] | 0.37 °C | 0.37 °C | – | – |
| CCn1c2ccccc2c2cc(NC(=O)C(C)Sc3nc(N)cc(=O)[nH]3)ccc21 (stereo not shown) [PK143] | 0.24 °C | 0.24 °C | – | – |
| CCn1c2ccccc2c2cc(NC(=O)COC(=O)c3cc(C(=O)OC)cc([N+](=O)[O-])c3)ccc21 [PK137] | 0.3 °C | 0.29 °C | – | – |
| CCn1c2ccccc2c2cc(CN3CCCC(N4CCOCC4)C3)ccc21 (stereo not shown) [PK225] | 0.55 °C | 0.53 °C | – | – |
| CCn1c2ccccc2c2cc(NC(=O)C(C)OC(=O)c3ccc([N+](=O)[O-])o3)ccc21 (stereo not shown) [PK119] | 0.48 °C | 0.48 °C | – | – |
| CCn1c2ccccc2c2cc(CNCCCn3cc(C(=O)N4CCOCC4)nn3)ccc21 [PK219] | 0.873 °C | 0.85 °C | – | – |
| CCn1c2ccccc2c2cc(CNCCO)ccc21 [PK211] | 0.58 °C | 0.58 °C | 120 µM | – |
| CCNC(=S)Nc1ccc2c(c1)c1ccccc1n2CC [PK168] | 0.4 °C | 0.41 °C | – | – |
| CCn1c2ccccc2c2cc(NC(=O)CN3C(=O)c4ccccc4S3(=O)=O)ccc21 [PK117] | 0.47 °C | 0.47 °C | – | – |
| CCn1c2ccccc2c2cc(CNCCN(C)C)ccc21 [PK207] | 0.57 °C | 0.57 °C | 200 µM | – |
| CCn1c2ccccc2c2cc(CNCCc3c[nH]c4ccccc34)ccc21 [PK193] | 0.3 °C | 0.3 °C | – | – |
| CCn1c2ccccc2c2cc(CN3CCC4(CC3)CC4C(=O)NCCc3ccccn3)ccc21 (stereo not shown) [PK220] | 0.68 °C | 0.64 °C | – | – |
| CCC(CO)NCc1ccc2c(c1)c1ccccc1n2CC (stereo not shown) [PK209] | 0.793 °C | 0.79 °C | 97 µM | – |
| Cc1ccc(CN2C[C@@H]3C[C@@H](C)N4CCC[C@@]34C2=O)o1 [PK223] | 0.40 °C | 0.38 °C | – | – |
| CCn1c2ccccc2c2cc(CN3CCC(N4CCN(CCO)CC4)CC3)ccc21 [PK205] | 0.4 °C | 0.4 °C | – | – |

| SMILES | ΔTm (° C.) (T-p53C-Y220C [1]; [4]) | ΔTm (T-p53C-Y220C [2]) | Kd (T-p53C-Y220C [3]) | ΔTm (° C.) (T-p53C-Y220C [1]; further compounds) |
| --- | --- | --- | --- | --- |
| CCn1c2ccccc2c2cc(NC(=O)CSc3nccc(=O)[nH]3)ccc21 [PK095] | – | 0.39 °C | – | – |
| CCn1c2ccccc2c2cc(NC(=O)COC(=O)Cn3cnc4c3c(=O)n(C)c(=O)n4C)ccc21 [PK114] | 0.39 °C | 0.39 °C | – | – |
| CCn1c2ccccc2c2cc(CN3CCC(n4cc(C(=O)NCCO)nn4)CC3)ccc21 [PK221] | 0.54 °C | 0.52 °C | – | – |
| CCn1c2ccccc2c2cc(NC(=O)c3ccc(OCC(N)=O)cc3)ccc21 [PK166] | 0.64 °C | 0.64 °C | – | – |
| CCn1c2ccccc2c2cc(CNCCCn3ccnc3)ccc21 [PK214] | – | – | 76 µM | 0.9 °C |
| CCN(CCN(C)C)Cc1ccc2c(c1)c1ccccc1n2CC [PK189] | 0.23 °C | 0.23 °C | – | – |
| CCn1c2ccccc2c2cc(NC(=S)Nc3cc(S(=O)(=O)N(C)C)ccc3C)ccc21 [PK102] | 0.37 °C | 0.37 °C | – | – |
| CCn1c2ccccc2c2cc(CN(C)C(=O)c3nccnc3N)ccc21 [PK164] | 0.51 °C | 0.51 °C | – | – |
| CCn1c2ccccc2c2cc(NC(=O)CN3C(=O)NC(C)(c4ccc(OC)cc4)C3=O)ccc21 (stereo not shown) [PK160] | 0.42 °C | 0.42 °C | – | – |
| CCn1c2ccccc2c2cc(NC(=O)COC(=O)c3ccc(NC(=O)CC#N)cc3)ccc21 [PK140] | 0.513 °C | 0.51 °C | – | – |
| CCn1c2ccccc2c2cc(NC(=O)CSc3nnc(N)s3)ccc21 [PK099] | 0.53 °C | 0.53 °C | – | – |
| CCn1c2ccccc2c2cc(NC(=O)COC(=O)c3ccc(-n4cnnn4)cc3)ccc21 [PK138] | 0.54 °C | 0.54 °C | – | – |
| CCn1c2ccccc2c2cc(CN3CCC(N4CCCCC4)CC3)ccc21 [PK188] | 0.39 °C | 0.39 °C | – | – |
| CCn1c2ccccc2c2cc(NC(=O)CN(CC(N)=O)C(C)C)ccc21 [PK161] | 0.46 °C | 0.47 °C | – | – |
| CCCN1CCN(C(C)C(=O)Nc2ccc3c(c2)c2ccccc2n3CC)CC1 (stereo not shown) [PK142] | 0.26 °C | 0.26 °C | – | – |
| CCn1c2ccccc2c2cc(NC(=O)C(C)OC(=O)c3ccc(-n4cnnn4)cc3)ccc21 (stereo not shown) [PK134] | 0.4 °C | 0.4 °C | – | – |
| CCOC(=O)c1c(C)n(C2CC2)c2ccc(OC(=O)C3COc4ccccc4O3)cc12 (stereo not shown) [PK305] | – | – | – | 0.26 °C |
| CCn1c2ccccc2c2cc(NC(=O)CN(C)CC(=O)Nc3ccc(N4CCOCC4)cc3)ccc21 [PK122] | – | – | – | 0.28 °C |
| CCn1c2ccccc2c2cc(NC(C)C(=O)NC(N)=O)ccc21 (stereo not shown) [PK158] | 0.63 °C | 0.63 °C | – | – |
| CCn1cc(C(=O)OCC2CNC(=O)O2)c2ccccc21 (stereo not shown) [PK311] | – | – | – | 0.15 °C |
| CCn1c2ccccc2c2cc(CNCCc3ccccc3)ccc21 [PK194] | 0.38 °C | 0.38 °C | – | – |
| COc1ccc2c(c1)c(C(=O)OC(C(N)=O)c1ccccc1)c(C)n2C1CC1 (stereo not shown) [PK294] | – | – | – | 0.064 °C |

Reference: patent publication US20110059953A1, “COMPOUNDS FOR USE IN STABILIZING P53 MUTANTS” (priority 2008, published 2011)
